IC50 and EC50 data for 14 molecules are collected here from ChEMBL document CHEMBL3259635, “Recent developments of metal N-heterocyclic carbenes as anticancer agents” (Eur J Med Chem, 2014).

What all share (type): functional, cell-based
Experiment [1] can be described thus: Cytotoxicity against breast cancer cells (unknown origin). The note with it: Cancer cell lines.
Experiment [2] in a line: Cytotoxicity against gastric cancer cells (unknown origin). As to conditions: Cancer cell lines, Stomach.
The nature of experiment [3]: Cytotoxicity against rat PC12 cells. The note with it: PC-12.
A short description of experiment [4]: Cytotoxicity against CCO cells. As to conditions: Ictalurus punctatus.
A short description of experiment [5]: Cytotoxicity against epithelial cancer cells (unknown origin). The note with it: Cancer cell lines.
Experiment [6] is described as follows: Cytotoxicity against rat PC12 cells after 24 hrs. The note with it: PC-12, 24 h.

Structures are written as SMILES. Bounds are passed on as bounds.

Consider `CC(=O)Oc1ccc(Cn2cc[n+](-c3c(C)cc(C)cc3C)c2)cc1`, for which the IC50 in experiment [1] was found to be 20 µM; in experiment [2] it was 10 µM.

As to `CCCCCCCCCCCCn1cc[n+](C)c1`, it took 24 µM to reach a half-maximal effect in experiment [3] (EC50).

The molecule `CCCCCCCCn1cc[n+](C)c1.O=S(=O)([N-]S(=O)(=O)C(F)(F)F)C(F)(F)F` registered an EC50 in experiment [4] below 0.1 µM.

Molecule `Cc1n(Cc2ccccc2)cc[n+]1Cc1ccccc1C(F)(F)F` had an IC50 in experiment [5] of 35 µM.

The molecule `c1ccc(Cc2cn(Cc3ccccc3)c[n+]2Cc2ccccc2)cc1` gave an IC50 in experiment [5] of 20 µM.

Turning to `Cc1n(Cc2ccccc2)cc[n+]1Cc1ccccc1`, the IC50 in experiment [1] and in experiment [2] was 35 µM throughout.

In experiment [5], `CC(=O)Oc1ccc(Cn2cc[n+](Cc3ccccc3)c2C)cc1` had an IC50 of 28 µM.

Consider `CCCCCCCC[n+]1ccn(C)c1`, for which the EC50 in experiment [6] stood at 560 µM.

Molecule `CCCn1cc[n+](C)c1` had an EC50 in experiment [4] above 10 µM.

`c1c[n+](C23CC4CC(CC(C4)C2)C3)cn1C12CC3CC(CC(C3)C1)C2`: in experiment [5], the IC50 stood at 1 µM.

For `CCCCCCCn1cc[n+](C)c1.O=S(=O)([N-]S(=O)(=O)C(F)(F)F)C(F)(F)F`, the EC50 in experiment [4] is below 0.1 µM.

Consider `Cc1ccc(C[n+]2ccn(Cc3ccccc3)c2)cc1`, for which 30 µM corresponded to half-maximal inhibition in experiment [5] (IC50).

In turn, `c1ccc(CCn2cc[n+](CCc3ccccc3)c2)cc1` gave an IC50 in experiment [5] of 20 µM.

Consider `CCCCn1cc[n+](C)c1`, for which the EC50 in experiment [3] is above 9120 µM.

For orientation: IC50 means the concentration at which inhibition is half-maximal. Low readings indicate higher potency, high ones lower potency. One may read the EC50 as the concentration needed to bring the measured effect to its halfway point. The low end stands for a more potent agent, the high end for a less potent agent.
